Experimental data published in PubChem BioAssay AID1963873 (Molecular Pharmacology Branch, DTP, NCI, 2024).

System: 276233-004-R-J1-PDC KRAS spheroids with HUVEC/MSC, viability
Experiment: Anticancer human tumor 276233-004-R-J1-PDC patient-derived colon adenocarcinoma cell line growth inhibition [KRAS2]
Conditions: for IC50: curve of first compound; for viability, T/C: stronger effect = lower value
Outline: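 Combination screen of spheroid viability in tumor-cell co-cultures with endothelial (HUVEC) and mesenchymal stem cell stroma. Each agent was tested in half-log dilutions, topping at clinical Cmax or at 10 microM without a known Cmax.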
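Further: cells exposed to agents for seven days before viability read.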
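Wherever viability, T/C is given: 100% = DMSO vehicle control wells and lower values mean fewer viable cells.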

Question: Which IC50 (second compound 0.1 µM) does the source give for `CC1COCCN1c1cc(-c2ccnn2C)c2ccnc(-c3ccn[nH]3)c2n1` (stereo not given) + CNCc1ccccc1-c1csc(C(C)Nc2nc(C)nc3cc(OC)c(OC)cc23)c1 here?
Answer: > 3.16 µM

Question: What about the IC50 (second compound 0.316 µM) of the same compound?
Answer: > 3.16 µM

Question: What about the IC50 (second compound 1 µM) of the same compound?
Answer: > 3.16 µM

Question: And the IC50 (second compound 3.16 µM)?
Answer: < 0.01 µM

Question: And the IC50 (second compound 10 µM)?
Answer: < 0.01 µM

Question: What about the viability, T/C (second compound 0.1 µM, first compound 0.01 µM) of the same compound?
Answer: 93.1%

Question: And the viability, T/C (second compound 0.1 µM, first compound 0.0316 µM)?
Answer: 95.5%

Question: And the viability, T/C (second compound 0.1 µM, first compound 0.1 µM)?
Answer: 90.2%

Question: What about the viability, T/C (second compound 0.1 µM, first compound 0.316 µM) of the same compound?
Answer: 82.8%

Question: What about the viability, T/C (second compound 0.1 µM, first compound 1 µM) of the same compound?
Answer: 70%

Question: What about the viability, T/C (second compound 0.1 µM, first compound 3.16 µM) of the same compound?
Answer: 57%

Question: What about the viability, T/C (second compound 0.316 µM, first compound 0.01 µM) of the same compound?
Answer: 93.2%

Question: And the viability, T/C (second compound 0.316 µM, first compound 0.0316 µM)?
Answer: 94.1%

Question: And the viability, T/C (second compound 0.316 µM, first compound 0.1 µM)?
Answer: 87.7%

Question: What about the viability, T/C (second compound 0.316 µM, first compound 0.316 µM) of the same compound?
Answer: 85.3%

Question: And the viability, T/C (second compound 0.316 µM, first compound 1 µM)?
Answer: 77.9%

Question: And the viability, T/C (second compound 0.316 µM, first compound 3.16 µM)?
Answer: 59.1%

Question: What about the viability, T/C (second compound 1 µM, first compound 0.01 µM) of the same compound?
Answer: 82%

Question: What about the viability, T/C (second compound 1 µM, first compound 0.0316 µM) of the same compound?
Answer: 86.7%

Question: And the viability, T/C (second compound 1 µM, first compound 0.1 µM)?
Answer: 69.9%

Question: What about the viability, T/C (second compound 1 µM, first compound 0.316 µM) of the same compound?
Answer: 63.1%

Question: What about the viability, T/C (second compound 1 µM, first compound 1 µM) of the same compound?
Answer: 57.7%

Question: What about the viability, T/C (second compound 1 µM, first compound 3.16 µM) of the same compound?
Answer: 50.9%

Question: And the viability, T/C (second compound 3.16 µM, first compound 0.01 µM)?
Answer: 0.49%

Question: And the viability, T/C (second compound 3.16 µM, first compound 0.0316 µM)?
Answer: 1.11%

Question: What about the viability, T/C (second compound 3.16 µM, first compound 0.1 µM) of the same compound?
Answer: 1.38%

Question: And the viability, T/C (second compound 3.16 µM, first compound 0.316 µM)?
Answer: 1.8%

Question: And the viability, T/C (second compound 3.16 µM, first compound 1 µM)?
Answer: 2.11%

Question: What about the viability, T/C (second compound 3.16 µM, first compound 3.16 µM) of the same compound?
Answer: 1.03%

Question: What about the viability, T/C (second compound 10 µM, first compound 0.01 µM) of the same compound?
Answer: 0.67%

Question: What about the viability, T/C (second compound 10 µM, first compound 0.0316 µM) of the same compound?
Answer: 3.53%

Question: And the viability, T/C (second compound 10 µM, first compound 0.1 µM)?
Answer: 0.82%

Question: What about the viability, T/C (second compound 10 µM, first compound 0.316 µM) of the same compound?
Answer: 0.17%

Question: And the viability, T/C (second compound 10 µM, first compound 1 µM)?
Answer: 0.15%

Question: What about the viability, T/C (second compound 10 µM, first compound 3.16 µM) of the same compound?
Answer: 2.79%
